# In patent US10220029B2, “Pharmaceutical composition comprising glutarimide derivatives and use thereof in the treatment of eosinophilic diseases” (OBSCHESTVO S ORGANICHENNOI OTVETSTVENNOSTIYU …, priority 2013, dated 2019):
# Marks after values point to notes of the source that are not given here.
# Experiments:
# Type in all cases: in vivo, guinea pig
# [1] = tested on: model of bronchial asthma in guinea pigs; test: Content of cell elements in BAL in the model of bronchial asthma in guinea pigs
# Description: (§1) Bronchial asthma in guinea pigs was induced by a standard method [Ricciardolo F L, Nijkamp F, De Rose V, Folkerts G. The guinea pig as an animal model for asthma// Current Drug Targets. 2008 June; 9(6):452-65]. The animals were immunized by one parenteral administration of 0.5 mL of a solution comprising 100 μg/mL ovalbumin (Sigma) and 100 mg/mL aluminium hydroxide. Intact animals received a physiological saline solution in an amount of 0.5 mL.
# (§2) On days 29, 30 and 31, hyperactivity of the respiratory airways was provoked by inhalation administration of ovalbumin in ascending concentrations of 0.1, 0.3, and 0.5 mg/mL on days 1, 2, and 3 of the provocation, respectively. The inhalation lasted 5 minutes or until asphyxia symptoms became apparent (fall to one side). On day 32, the animals received a challenging dose of ovalbumin (1 mg/mL) for 5 minutes, while assessing a bronchospastic reaction.
# (§3) The studied compounds were administered to the animals once daily every day for 6 or 10 days; the administration was terminated two days before the administration of the challenging dose of antigen.
# (§4) The bronchoalveolar lavage (BAL) and cardiac cavity blood were derived from the animals 24 hours after administration of the challenging dose. The BAL was collected under anesthesia by lavaging the lungs with 5 mL of a physiological saline solution heated to 37° C. through the trachea, using a syringe dosing device.
# The absolute number of cell elements in 1 μL of the lavage (cytosis) was counted in the bronchoalveolar lavage, using the Goryaev camera. Then, the BAL was centrifuged at 200 g for 10 minutes. The residue was used to prepare swabs that were fixed in methanol and stained according to Romanovsky-Giemsa to count endopulmonary cytogram.
# (§5) The study comprised 3 experiments, wherein the first one was directed to the evaluation of the effect of claimed compounds 1-6 on the cell composition of the BAL, the second and the third experiments were aimed at evaluating the effect of compounds 1 and 2 on the cell composition of the BAL, the cell composition of the blood, and on the bronchospasm severity.
# [2] = tested on: model of bronchial asthma in guinea pigs; test: Content of cell elements in the blood in the model of bronchial asthma in guinea pigs; conditions: Table 6 Experiment No. 2, 6 times, n = 8
# Description: as §1, §2, §3, §4
# The blood was analyzed with a hemocytometer to determine leykoformula.
# as §5
# [3] = tested on: model of bronchial asthma in guinea pigs; test: Severity of bronchospasm in the model of bronchial asthma in guinea pigs; conditions: Experiment No. 2, 6 times, n = 8
# Description: as §1, §2, §3
# The bronchospastic reaction was assessed by a change in the rate and depth of the respiratory movements and by the asphyxia symptom such as fall to one side. Spirogram was registered by laboratory experimental equipment (ADInstruments, Australia), using a base recording station (PowerLab 8sp.) and software LabCart. The registration was made using airflow sensors for laboratory animals and a spirograph with an integrated amplifier (ADInstruments).
# as §5
# [4] = Table 4, 14 mg/kg, 10 times of administration, n = 9
# [5] = Table 5 Experiment No. 2, 0.14 mg/kg, 6 times, n = 8
# [6] = Table 5 Experiment No. 2, 1.4 mg/kg, 6 times, n = 8
# [7] = Table 5 Experiment No. 2, 14 mg/kg, 6 times, n = 8
compound,measurement,setting,value
O=C1CCCC(=O)N1CCc1ncc[nH]1 [Compound 2],Eosinophils in BAL,[1]; [4],1.30 ± 0.29*& 10^9/L
same,Lymphocytes in BAL,[1]; [4],1.53 ± 0.50* 10^9/L
same,Monocytes in BAL,[1]; [4],0.60 ± 0.14* 10^9/L
same,Neutrophils in BAL,[1]; [4],1.05 ± 0.16*& 10^9/L
same,Cytosis in BAL,[1]; [5],0.55 ± 0.09*& 10^9/L
same,Eosinophils in BAL,[1]; [5],0.20 ± 0.03*& 10^9/L
same,Lymphocytes in BAL,[1]; [5],0.07 ± 0.02& 10^9/L
same,Monocytes in BAL,[1]; [5],0.24 ± 0.06*& 10^9/L
same,Neutrophils in BAL,[1]; [5],0.03 ± 0.008*& 10^9/L
same,Cytosis in BAL,[1]; [6],0.63 ± 0.09*& 10^9/L
same,Eosinophils in BAL,[1]; [6],0.18 ± 0.02*& 10^9/L
same,Lymphocytes in BAL,[1]; [6],0.06 ± 0.01& 10^9/L
same,Monocytes in BAL,[1]; [6],0.29 ± 0.07* 10^9/L
same,Neutrophils in BAL,[1]; [6],0.09 ± 0.002 10^9/L
same,Cytosis in BAL,[1]; [7],0.56 ± 0.008*& 10^9/L
same,Eosinophils in BAL,[1]; [7],0.21 ± 0.06*& 10^9/L
same,Lymphocytes in BAL,[1]; [7],0.07 ± 0.009& 10^9/L
same,Monocytes in BAL,[1]; [7],0.22 ± 0.05*& 10^9/L
same,Neutrophils in BAL,[1]; [7],0.07 ± 0.002 10^9/L
same,Banded neutrophils in the blood,[2]; 0.14 mg/kg,0.18 ± 0.04 10^9/L
same,Basophils in the blood,[2]; 0.14 mg/kg,0 ± 0 10^9/L
same,Cytosis in the blood,[2]; 0.14 mg/kg,7.80 ± 0.77*& 10^9/L
same,Eosinophils in the blood,[2]; 0.14 mg/kg,0.09 ± 0.03& 10^9/L
same,Lymphocytes in the blood,[2]; 0.14 mg/kg,3.95 ± 0.54& 10^9/L
same,Monocytes in the blood,[2]; 0.14 mg/kg,0.18 ± 0.06 10^9/L
same,Segmented neutrophils in the blood,[2]; 0.14 mg/kg,3.41 ± 0.41*& 10^9/L
same,Banded neutrophils in the blood,[2]; 1.4 mg/kg,0.21 ± 0.03 10^9/L
same,Basophils in the blood,[2]; 1.4 mg/kg,0 ± 0 10^9/L
same,Cytosis in the blood,[2]; 1.4 mg/kg,7.70 ± 0.40*& 10^9/L
same,Eosinophils in the blood,[2]; 1.4 mg/kg,0.1 ± 0.03& 10^9/L
same,Lymphocytes in the blood,[2]; 1.4 mg/kg,3.68 ± 0.25& 10^9/L
same,Monocytes in the blood,[2]; 1.4 mg/kg,0.18 ± 0.06 10^9/L
same,Segmented neutrophils in the blood,[2]; 1.4 mg/kg,3.53 ± 0.37*& 10^9/L
same,Banded neutrophils in the blood,[2]; 14 mg/kg,0.17 ± 0.04 10^9/L
same,Basophils in the blood,[2]; 14 mg/kg,0 ± 0 10^9/L
same,Cytosis in the blood,[2]; 14 mg/kg,6.93 ± 0.77& 10^9/L
same,Eosinophils in the blood,[2]; 14 mg/kg,0.1 ± 0.04& 10^9/L
same,Lymphocytes in the blood,[2]; 14 mg/kg,3.51 ± 0.41& 10^9/L
same,Monocytes in the blood,[2]; 14 mg/kg,0.24 ± 0.08 10^9/L
same,Segmented neutrophils in the blood,[2]; 14 mg/kg,2.9 ± 0.38& 10^9/L
same,"The number of animals with moderate bronchospasm (without acute phase, with subacute phase, with breath management)",[3]; 0.14 mg/kg,1
same,"The number of animals with moderate bronchospasm (without acute phase, with subacute phase, without breath management)",[3]; 0.14 mg/kg,1
same,The number of animals with severe bronchospasm (in acute and subacute phase),[3]; 0.14 mg/kg,2
same,The number of animals without bronchospasm,[3]; 0.14 mg/kg,4
same,"The number of animals with moderate bronchospasm (without acute phase, with subacute phase, with breath management)",[3]; 1.4 mg/kg,0
same,"The number of animals with moderate bronchospasm (without acute phase, with subacute phase, without breath management)",[3]; 1.4 mg/kg,3
same,The number of animals with severe bronchospasm (in acute and subacute phase),[3]; 1.4 mg/kg,1
same,The number of animals without bronchospasm,[3]; 1.4 mg/kg,4
same,"The number of animals with moderate bronchospasm (without acute phase, with subacute phase, with breath management)",[3]; 14 mg/kg,1
same,"The number of animals with moderate bronchospasm (without acute phase, with subacute phase, without breath management)",[3]; 14 mg/kg,0
same,The number of animals with severe bronchospasm (in acute and subacute phase),[3]; 14 mg/kg,2
same,The number of animals without bronchospasm,[3]; 14 mg/kg,5
